Where two headings read alike, the source gives them in different places. Where a SMILES comes first, the peptide text is derived from it. Bridges are numbered along the chain shown (N, C = ends). Primed or numbered codes have the meaning given here. [ ]: non-standard residue; d: D form. NMePhe(3-Cl) = CN[C@@H](Cc1cccc(Cl)c1)C(=O)O; NMeW = CN[C@@H](Cc1c[nH]c2ccccc12)C(=O)O; Phe(4-F) = N[C@@H](Cc1ccc(F)cc1)C(=O)O; NMeY = CN[C@@H](Cc1ccc(O)cc1)C(=O)O; Ahp(2) = CCCCC[C@H](N)C(=O)O; PEG4 = NCCOCCOCCOCCOCCC(=O)O; PEG11′ = not defined here; Nva = CCC[C@H](N)C(=O)O; Abu = CC[C@H](N)C(=O)O
Biological target: transferrin receptor (hTfR) (Homo sapiens, UniProt P02786)
Assay: Intermolecular interaction evaluation test between transferrin receptor (hTfR) and peptide by surface plasmon resonance (SPR)
Format: binding
In short: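 hTfR captured on Ni-NTA chip then amine-coupled; peptides run single-cycle kinetics at 5–100 nM in 10 mM HEPES pH 8.0, 150 mM NaCl, 0.05% Tween 20, 0.1% BSA, 1.0% DMSO. KD from least-squares curve fitting of sensorgrams.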

[1] = surface plasmon resonance, hTfR, read-out: KD value for hTfR by SPR (class symbol)
[2] = SPR, peptides, linker-added peptides and FITC conjugates, Patent ID 203-230, read-out: KD
[3] = binding to hTfR by SPR, Table 2 peptides, read-out: KD value (SPR) class
[4] = surface plasmon resonance, peptide vs hTfR, read-out: KD value, hTfR binding by SPR (class symbol)

transferrin receptor (hTfR), sequence (P02786 whole entry): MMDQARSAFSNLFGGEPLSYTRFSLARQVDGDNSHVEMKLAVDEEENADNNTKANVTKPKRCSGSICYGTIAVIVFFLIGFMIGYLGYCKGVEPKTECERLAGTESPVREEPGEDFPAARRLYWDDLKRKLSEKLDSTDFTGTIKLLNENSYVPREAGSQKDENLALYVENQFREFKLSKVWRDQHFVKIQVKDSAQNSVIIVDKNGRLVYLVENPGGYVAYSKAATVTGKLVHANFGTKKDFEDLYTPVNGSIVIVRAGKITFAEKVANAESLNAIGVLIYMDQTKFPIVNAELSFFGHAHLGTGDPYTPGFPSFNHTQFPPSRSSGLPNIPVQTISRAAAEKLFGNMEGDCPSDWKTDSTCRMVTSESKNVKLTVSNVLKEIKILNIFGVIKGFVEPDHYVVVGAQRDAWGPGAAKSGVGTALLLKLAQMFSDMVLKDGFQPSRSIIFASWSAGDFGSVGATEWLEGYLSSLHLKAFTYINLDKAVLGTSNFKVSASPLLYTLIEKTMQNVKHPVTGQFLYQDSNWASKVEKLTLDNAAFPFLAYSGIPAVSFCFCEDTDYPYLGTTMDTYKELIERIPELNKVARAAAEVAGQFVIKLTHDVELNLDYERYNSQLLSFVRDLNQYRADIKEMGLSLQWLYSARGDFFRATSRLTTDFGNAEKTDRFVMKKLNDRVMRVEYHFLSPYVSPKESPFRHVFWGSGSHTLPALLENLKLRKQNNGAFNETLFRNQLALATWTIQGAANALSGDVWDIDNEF

Compound: CC[C@H](C)[C@@H]1NC(=O)[C@H](Cc2ccc(O)cc2)NC(=O)[C@H](Cc2ccc(O)cc2)NC(=O)[C@H](CC(N)=O)NC(=O)[C@H](Cc2cccc(F)c2)NC(=O)[C@H](C(C)C)NC(=O)[C@H](Cc2ccccc2)N(C)C(=O)[C@H](C(C)C)NC(=O)[C@H](C)NC(=O)CSC[C@@H](C(=O)NCCOCCOCCOCCOCCOCCOCCOCCOCCOCCOCCOCCOCCC(N)=O)NC(=O)[C@H](Cc2ccc(O)cc2)N(C)C(=O)[C@H](Cc2ccc(O)cc2)NC(=O)[C@H](CCCNC(=N)N)NC(=O)[C@H](CCCNC(=N)N)NC(=O)[C@H]([C@@H](C)CC)NC1=O [compound 122]
- Kd (SPR, hTfR No. 894 variants with PEG12c linker (Table 2), read-out: KD): 1 to 100 nM

Compound: CC[C@H](C)[C@@H]1NC(=O)[C@H](Cc2ccc(OC)cc2)NC(=O)[C@H](Cc2ccc(O)cc2)NC(=O)[C@H](CC(N)=O)NC(=O)[C@H](Cc2c[nH]c3ccccc23)N(C)C(=O)[C@H](C(C)C)NC(=O)[C@H](Cc2cccc(Cl)c2)N(C)C(=O)[C@H](C(C)C)NC(=O)[C@H](C)NC(=O)CSC[C@@H](C(N)=O)NC(=O)[C@H](Cc2ccc(O)cc2)N(C)C(=O)[C@H](Cc2ccccc2)NC(=O)[C@H](CCCNC(=N)N)NC(=O)C(C)(CCCCN)NC(=O)[C@H]([C@@H](C)CC)NC1=O (stereo partly drawn) [compound 379]
- Kd [1]: 1 to 100 nM

Compound: hTfRNo.894FLIP-vivotag750: control: cyclic peptide with inverted No. 894 sequence (SEQ ID NO: 202) bound to VivoTag 750 via PEG11 linker ({CH2CO}-A[NMeY]YRRIIYYNWVFVC-{PEG11′-VivoTag750}; thioether N-15 (inferred); not fully specified; printed as ClAc-Ala-MeTyr-Tyr-Arg-Arg-Ile-Ile-Tyr-Tyr-Asn-Trp-Val-Phe-Val-Cys) [reference compound]
- hTfR binding ability (SPR, result in words): no binding to hTfR was recognized

Compound: CC[C@H](C)[C@@H]1NC(=O)[C@H](Cc2ccc(OC)cc2)NC(=O)[C@H](Cc2ccc(O)cc2)NC(=O)[C@H](CC(N)=O)NC(=O)[C@H](Cc2c[nH]c3ccccc23)N(C)C(=O)[C@H](C(C)C)NC(=O)[C@H](Cc2cccc(Cl)c2)N(C)C(=O)[C@H](CCC(=O)O)NC(=O)[C@H](C)NC(=O)CSC[C@@H](C(N)=O)NC(=O)[C@H](CC(N)=O)NC(=O)[C@H](CCCNC(=N)N)NC(=O)[C@@H]2CCCN2C(=O)[C@H](C(C)C)NC1=O [compound 207] ({CH2CO}-AE[NMePhe(3-Cl)]V[NMeW]NYY(Me)IVPRNC-NH2; thioether N-14)
- Kd [2]: 1 to 100 nM

Compound: CC[C@H](C)[C@@H]1NC(=O)[C@H](Cc2ccc(O)cc2)NC(=O)[C@H](Cc2ccc(O)cc2)NC(=O)[C@H](CC(N)=O)NC(=O)[C@H](Cc2c[nH]c3ccccc23)NC(=O)[C@H](C(C)C)NC(=O)[C@H](Cc2ccccc2)NC(=O)[C@H](C(C)C)NC(=O)[C@H](C)NC(=O)CCC[C@@H](C(N)=O)NC(=O)[C@H](Cc2ccc(O)cc2)N(C)C(=O)[C@H](Cc2ccc(O)cc2)NC(=O)[C@H](CCCNC(=N)N)NC(=O)[C@H](CCCNC(=N)N)NC(=O)[C@H]([C@@H](C)CC)NC1=O [compound 408]
- Kd [1]: 1 to 100 nM

Compound: CCCCC[C@@H]1NC(=O)[C@H]([C@@H](C)CC)NC(=O)[C@H]([C@@H](C)CC)NC(=O)[C@H](Cc2ccc(OC)cc2)NC(=O)[C@H](Cc2ccc(O)cc2)NC(=O)[C@H](CC(N)=O)NC(=O)[C@H](Cc2c[nH]c3ccccc23)N(C)C(=O)[C@H](C(C)C)NC(=O)[C@H](Cc2cccc(Cl)c2)N(C)C(=O)[C@H](C(C)C)NC(=O)[C@H](C)NC(=O)CSC[C@@H](C(=O)NCCOCCOCCOCCOCCC(N)=O)NC(=O)[C@H](Cc2ccc(O)cc2)N(C)C(=O)[C@H](Cc2ccccc2)NC(=O)[C@@H](CCCNC(=N)N)NC1=O [compound 362] ({CH2CO}-AV[NMePhe(3-Cl)]V[NMeW]NYY(Me)II[Ahp(2)][dR]F[NMeY]C[PEG4]-NH2; thioether N-15)
- Kd [1]: 1 to 100 nM

Compound: CC[C@H](C)[C@@H]1NC(=O)[C@H](Cc2ccc(F)cc2)NC(=O)[C@H](Cc2ccc(O)cc2)NC(=O)[C@H](CC(N)=O)NC(=O)[C@H](Cc2c[nH]c3ccccc23)N(C)C(=O)[C@H](C(C)C)NC(=O)[C@H](Cc2cccc(Cl)c2)N(C)C(=O)[C@H](C(C)C)NC(=O)[C@H](C)NC(=O)CSC[C@@H](C(N)=O)NC(=O)[C@H](Cc2ccc(O)cc2)N(C)C(=O)[C@H](Cc2ccccc2)NC(=O)[C@@H](CCCNC(=N)N)NC(=O)[C@H](CCCNC(=N)N)NC(=O)[C@H]([C@@H](C)CC)NC1=O [compound 467] ({CH2CO}-AV[NMePhe(3-Cl)]V[NMeW]NY[Phe(4-F)]IIR[dR]F[NMeY]C-NH2; thioether N-15)
- Kd (SPR, hTfR, class symbols A-D, read-out: KD): 1 to 100 nM

Compound: CC[C@H](C)[C@@H]1NC(=O)[C@H](Cc2ccc(O)cc2)NC(=O)[C@H](Cc2ccc(O)cc2)NC(=O)[C@H](CC(N)=O)NC(=O)[C@H](Cc2c[nH]c3ccc(Cl)cc23)NC(=O)[C@H](C(C)C)NC(=O)[C@H](Cc2ccccc2)N(C)C(=O)[C@H](C(C)C)NC(=O)[C@H](C)NC(=O)CSC[C@@H](C(N)=O)NC(=O)[C@H](Cc2ccc(O)cc2)N(C)C(=O)[C@H](Cc2ccc(O)cc2)NC(=O)[C@H](CCCNC(=N)N)NC(=O)[C@H](CCCNC(=N)N)NC(=O)[C@H]([C@@H](C)CC)NC1=O [compound 268]
- Kd [3]: 1 to 100 nM

Compound: CC[C@H](C)[C@@H]1NC(=O)[C@H](Cc2ccc(O)cc2)NC(=O)[C@H](Cc2ccc(O)cc2)NC(=O)[C@H](CC(N)=O)NC(=O)[C@H](Cc2c[nH]c3ccccc23)NC(=O)[C@H](C(C)C)NC(=O)[C@H](Cc2ccccc2)NC(=O)[C@H](CCCNC(=N)N)NC(=O)[C@H](C)NC(=O)CSC[C@@H](C(N)=O)NC(=O)[C@H](Cc2ccc(O)cc2)N(C)C(=O)[C@H](Cc2ccc(O)cc2)NC(=O)[C@H](CCCNC(=N)N)NC(=O)[C@H](CCCNC(=N)N)NC(=O)[C@H]([C@@H](C)CC)NC1=O [compound 237]
- Kd [3]: 1 to 100 nM

Compound: CC[C@@H]1NC(=O)[C@H]([C@@H](C)CC)NC(=O)[C@H](Cc2ccc(OC)cc2)NC(=O)[C@H](Cc2ccc(O)cc2)NC(=O)[C@H](CC(N)=O)NC(=O)[C@H](Cc2c[nH]c3ccccc23)N(C)C(=O)[C@H](C(C)C)NC(=O)[C@H](Cc2cccc(Cl)c2)N(C)C(=O)[C@H](C(C)C)NC(=O)[C@H](C)NC(=O)CSC[C@@H](C(=O)NCCOCCOCCOCCOCCC(N)=O)NC(=O)[C@H](Cc2ccc(O)cc2)N(C)C(=O)[C@H](Cc2ccccc2)NC(=O)[C@@H](CCCNC(=N)N)NC(=O)[C@H](CCCNC(=N)N)NC1=O [compound 325] ({CH2CO}-AV[NMePhe(3-Cl)]V[NMeW]NYY(Me)I[Abu]R[dR]F[NMeY]C[PEG4]-NH2; thioether N-15)
- Kd [4]: 1 to 100 nM

Compound: CC[C@@H]1NC(=O)[C@H](C)NC(=O)CSC[C@@H](C(=O)NCCOCCOCCOCCOCCC(N)=O)NC(=O)[C@H](Cc2ccc(O)cc2)N(C)C(=O)[C@H](Cc2ccccc2)NC(=O)[C@@H](CCCNC(=N)N)NC(=O)[C@H](CCCNC(=N)N)NC(=O)[C@H]([C@@H](C)CC)NC(=O)[C@H]([C@@H](C)CC)NC(=O)[C@H](Cc2ccc(OC)cc2)NC(=O)[C@H](Cc2ccc(O)cc2)NC(=O)[C@H](CC(N)=O)NC(=O)[C@H](Cc2c[nH]c3ccccc23)N(C)C(=O)[C@H](C(C)C)NC(=O)[C@H](Cc2cccc(Cl)c2)N(C)C1=O [compound 243] ({CH2CO}-A[Abu][NMePhe(3-Cl)]V[NMeW]NYY(Me)IIR[dR]F[NMeY]C[PEG4]-NH2; thioether N-15)
- Kd [3]: 1 to 100 nM

Compound: CC[C@H](C)[C@@H]1NC(=O)[C@H](Cc2ccc(OC)cc2)NC(=O)[C@H](Cc2ccc(O)cc2)NC(=O)[C@H](CC(N)=O)NC(=O)[C@H](Cc2c[nH]c3ccccc23)N(C)C(=O)[C@H](C(C)C)NC(=O)[C@H](Cc2cccc(Cl)c2)N(C)C(=O)[C@H](C(C)C)NC(=O)[C@H](C)N(C)C(=O)CSC[C@@H](C(N)=O)NC(=O)[C@H](Cc2ccc(O)cc2)N(C)C(=O)[C@H](Cc2ccccc2)NC(=O)[C@H](CCCNC(=N)N)NC(=O)[C@H](CCCCN)NC(=O)[C@H]([C@@H](C)CC)NC1=O [compound 213]
- Kd [2]: 1 to 100 nM

Compound: CC[C@H](C)[C@@H]1NC(=O)[C@H](Cc2ccc(O)cc2)NC(=O)[C@H](Cc2ccc(O)cc2)NC(=O)[C@H](CC(N)=O)NC(=O)[C@H](Cc2c[nH]c3ccccc23)NC(=O)[C@H](C(C)C)NC(=O)[C@H](Cc2ccccc2)N(C)C(=O)[C@H](C(C)C)NC(=O)[C@H](C)NC(=O)CSC[C@@H](C(=O)NCC(=O)N[C@@H](CCCCN)C(N)=O)NC(=O)[C@H](Cc2ccc(O)cc2)N(C)C(=O)[C@H](Cc2ccc(O)cc2)NC(=O)[C@H](CCCNC(=N)N)NC(=O)[C@H](CCCNC(=N)N)NC(=O)[C@H]([C@@H](C)CC)NC1=O [compound 525]
- Kd (SPR, hTfR, class symbols A-D, read-out: KD (column without head, continuation of the table series)): 1 to 100 nM

Compound: CC[C@H](C)[C@@H]1NC(=O)[C@H](Cc2ccc(OC)cc2)NC(=O)[C@H](Cc2ccc(O)cc2)NC(=O)[C@H](CC(N)=O)NC(=O)[C@H](Cc2c[nH]c3ccccc23)N(C)C(=O)[C@H](C(C)C)NC(=O)[C@H](Cc2cccc(Cl)c2)N(C)C(=O)[C@H](C(C)C)NC(=O)[C@H](C)NC(=O)CSC[C@@H](C(N)=O)NC(=O)[C@H](Cc2ccc(O)cc2)N(C)C(=O)[C@H](CCC(=O)NCCOCCOCCOCCOCCOCCOCCOCCOC)NC(=O)[C@@H](CCCNC(=N)N)NC(=O)[C@H](CCCNC(=N)N)NC(=O)[C@H]([C@@H](C)CC)NC1=O [compound 389]
- Kd [1]: < 1 nM

Compound: CCC[C@@H]1NC(=O)[C@H]([C@@H](C)CC)NC(=O)[C@H](Cc2ccc(OC)cc2)NC(=O)[C@H](Cc2ccc(O)cc2)NC(=O)[C@H](CC(N)=O)NC(=O)[C@H](Cc2c[nH]c3ccccc23)N(C)C(=O)[C@H](C(C)C)NC(=O)[C@H](Cc2cccc(Cl)c2)N(C)C(=O)[C@H](C(C)C)NC(=O)[C@H](C)NC(=O)CSC[C@@H](C(=O)NCCOCCOCCOCCOCCC(N)=O)NC(=O)[C@H](Cc2ccc(O)cc2)N(C)C(=O)[C@H](Cc2ccccc2)NC(=O)[C@@H](CCCNC(=N)N)NC(=O)[C@H](CCCNC(=N)N)NC1=O [compound 326] ({CH2CO}-AV[NMePhe(3-Cl)]V[NMeW]NYY(Me)I[Nva]R[dR]F[NMeY]C[PEG4]-NH2; thioether N-15)
- Kd [4]: 1 to 100 nM
